The subject of experiment [1] is Helicobacter pylori. The experiment can be described thus: Antimicrobial activity against Helicobacter pylori. The format is functional.
Experiment [2] relates to Helicobacter pylori. The experiment can be described thus: Inhibition of Helicobacter pyroli PFOR expressed in Escherichia coli at 40 uM.
Another experiment deals with Campylobacter jejuni. As to the kind of experiment: Antimicrobial activity against Campylobacter jejuni. The format is functional.
The subject of a further experiment is Clostridioides difficile. As to the kind of experiment: Antimicrobial activity against Clostridium difficile. The format is functional.

Values after ≈ are worked out from the molar mass of the structure shown. Where only a bound is given, the exact number is not on record here.

As a reminder, the MIC is the least concentration at which growth counts as inhibited. A word on the inhibition: it is the share of the control response that was lost under treatment. Higher therefore signals a strong effect. With `O=C(Nc1ncc([N+](=O)[O-])s1)c1cccc(C(F)(F)F)c1`, the MIC came to 3.5 µM (≈ 1.11 µg/mL) with Helicobacter pylori [1], 0.4 µM (≈ 0.127 µg/mL) against Campylobacter jejuni and 4.7 µM (≈ 1.49 µg/mL) in the experiment on Clostridioides difficile. In addition, the inhibition in the experiment on Helicobacter pylori [2] came to 47%.

Take `CC(=O)Oc1ccccc1C(=O)Nc1ncc([N+](=O)[O-])s1` [NITAZOXANIDE]: the results for the MIC in the experiment on Helicobacter pylori [1], with Campylobacter jejuni and in the experiment with Clostridioides difficile were 13 µM (≈ 3.99 µg/mL), 0.8 µM (≈ 0.246 µg/mL) and 39.1 µM (≈ 12 µg/mL), respectively. Besides, the inhibition in the experiment with Helicobacter pylori [2] stood at 54%.

As for `O=C(Nc1sc([N+](=O)[O-])cc1[N+](=O)[O-])c1ccoc1`, the MIC in the experiment with Helicobacter pylori [1] came to 2.6 µM (≈ 0.736 µg/mL); with Campylobacter jejuni it was 3.5 µM (≈ 0.991 µg/mL); against Clostridioides difficile it was 0.4 µM (≈ 0.113 µg/mL). For the same compound, the inhibition with Helicobacter pylori [2] came out at 66%.

`CCCCCC(=O)Nc1sc([N+](=O)[O-])cc1[N+](=O)[O-]`: the results for the MIC against Helicobacter pylori [1], against Campylobacter jejuni and in the experiment on Clostridioides difficile were 2.6 µM (≈ 0.747 µg/mL), 27.8 µM (≈ 7.99 µg/mL) and 0.9 µM (≈ 0.259 µg/mL), respectively. The same compound displayed an inhibition in the experiment on Helicobacter pylori [2] of 80%.

As for `O=C(Nc1sc([N+](=O)[O-])cc1[N+](=O)[O-])c1cccc(C(F)(F)F)c1`, the values for the MIC against Helicobacter pylori [1], against Campylobacter jejuni and with Clostridioides difficile were 0.5 µM (≈ 0.181 µg/mL), 4.2 µM (≈ 1.52 µg/mL) and 2.1 µM (≈ 0.759 µg/mL), respectively. Moreover, the inhibition in the experiment on Helicobacter pylori [2] amounted to 47%.

On to `O=C(Nc1ncc([N+](=O)[O-])s1)c1cccs1` [TENONITROZOLE], for which the MIC against Helicobacter pylori [1] came out at 2.9 µM (≈ 0.74 µg/mL); in the experiment with Campylobacter jejuni, 1 µM (≈ 0.255 µg/mL); in the experiment with Clostridioides difficile, 2.9 µM (≈ 0.74 µg/mL). This compound showed an inhibition in the experiment with Helicobacter pylori [2] of 50%.

Consider `O=C(Nc1nc(Cl)c([N+](=O)[O-])s1)c1cccc(C(F)(F)F)c1`, for which the minimum inhibitory concentration (MIC) was 5.7 µM (≈ 2 µg/mL) with Helicobacter pylori [1], more than 22.7 µM in the experiment with Campylobacter jejuni and 34.1 µM (≈ 12 µg/mL) against Clostridioides difficile. This compound also gave an inhibition in the experiment on Helicobacter pylori [2] of 27%.

Consider `CCCCCC(=O)Nc1ncc([N+](=O)[O-])s1`, for which the results for the MIC against Helicobacter pylori [1], against Campylobacter jejuni and against Clostridioides difficile were 0.5 µM (≈ 0.122 µg/mL), 8.2 µM (≈ 1.99 µg/mL) and 2.1 µM (≈ 0.511 µg/mL), respectively. Besides, the inhibition with Helicobacter pylori [2] was 70%.

`O=C(Nc1sc([N+](=O)[O-])cc1[N+](=O)[O-])c1ccccc1`: the minimal inhibitory concentration (MIC) in the experiment on Helicobacter pylori [1] is 1.3 µM (≈ 0.381 µg/mL); against Campylobacter jejuni, 27.3 µM (≈ 8.01 µg/mL); in the experiment with Clostridioides difficile it was 0.9 µM (≈ 0.264 µg/mL). In the experiment on Helicobacter pylori [2], this compound showed an inhibition of 55%.

Take `CCCCCC(=O)Nc1nc(Cl)c([N+](=O)[O-])s1`: the values for the MIC against Helicobacter pylori [1], against Campylobacter jejuni and in the experiment with Clostridioides difficile were 0.9 µM (≈ 0.25 µg/mL), 28.8 µM (≈ 8 µg/mL) and 36 µM (≈ 10 µg/mL), respectively. This compound also registered an inhibition in the experiment on Helicobacter pylori [2] of 63%.

On to `O=C(Nc1ncc([N+](=O)[O-])s1)c1ccoc1`, for which the minimum inhibitory concentration (MIC) came to 0.8 µM (≈ 0.191 µg/mL) against Helicobacter pylori [1], 2.1 µM (≈ 0.502 µg/mL) with Campylobacter jejuni and 12.5 µM (≈ 2.99 µg/mL) against Clostridioides difficile. For the same compound, in the experiment on Helicobacter pylori [2], the inhibition was determined as 56%.

`O=C(Nc1nc(Cl)c([N+](=O)[O-])s1)c1cccs1`: the MIC was 6.9 µM (≈ 2 µg/mL) in the experiment with Helicobacter pylori [1], more than 13.8 µM with Campylobacter jejuni and 13.8 µM (≈ 4 µg/mL) against Clostridioides difficile. The compound further showed an inhibition with Helicobacter pylori [2] of 51%.

With `O=C(Nc1sc([N+](=O)[O-])cc1[N+](=O)[O-])c1cccs1`, the MIC with Helicobacter pylori [1] is 2.5 µM (≈ 0.748 µg/mL); in the experiment with Campylobacter jejuni, 20 µM (≈ 5.99 µg/mL); against Clostridioides difficile, 1 µM (≈ 0.299 µg/mL). The compound further displayed an inhibition in the experiment on Helicobacter pylori [2] of 77%.

Regarding `O=C(Nc1nc(Cl)c([N+](=O)[O-])s1)c1ccccc1`, the values for the MIC against Helicobacter pylori [1], in the experiment with Campylobacter jejuni and in the experiment on Clostridioides difficile were 8.8 µM (≈ 2.5 µg/mL), more than 28.2 µM and 7 µM (≈ 1.99 µg/mL), respectively. The inhibition in the experiment with Helicobacter pylori [2] is 59%.

Values taken from ChEMBL document CHEMBL1158616, “Biological activity of modified and exchanged 2-amino-5-nitrothiazole amide analogues of nitazoxanide” (2010).
